The structures appear in SMILES notation.

The target in the assay is T1, SARS-CoV-2 main protease (Mpro, 3CLpro) (Severe acute respiratory syndrome coronavirus 2, UniProt P0DTD1).
T1 construct: gene rep
Description: FRET peptide cleavage assay. Type of assay: biochemical. The text has this:
FRET peptide cleavage assay on SARS-CoV-2 main protease (Mpro, 3CLpro)
The IC50 is the midpoint of a concentration-inhibition curve. Lower therefore signals greater potency. In turn, `C=C(C)[C@@H]1CC[C@]2(C(=O)NCCOc3ccc(CCOc4ccc(C[C@H](OCC)C(=O)O)cc4)cc3)CC[C@]3(C)[C@H](CC[C@@H]4[C@@]5(C)CCC(=O)C(C)(C)[C@@H]5CC[C@]43C)[C@@H]12` [1a] showed an IC50 of 100 ± 5 µM.
The figure for `CCO[C@@H](Cc1ccc(OCCc2ccc(OCCNC(=O)[C@]34CC[C@@H](C)[C@H](C)[C@H]3C3=CC[C@@H]5[C@@]6(C)CC[C@H](O)C(C)(C)[C@@H]6CC[C@@]5(C)[C@]3(C)CC4)cc2)cc1)C(=O)O` [1d] is 100 ± 5 µM.
The figure for `CCO[C@@H](Cc1ccc(OCCc2ccc(OCCNC(=O)[C@]34CC[C@@H](C)[C@H](C)[C@H]3C3=CC[C@@H]5[C@@]6(C)C[C@@H](O)[C@H](O)C(C)(C)[C@@H]6CC[C@@]5(C)[C@]3(C)CC4)cc2)cc1)C(=O)O` [1e] is 25 ± 3 µM; for `CCO[C@@H](Cc1ccc(OCCc2ccc(OCCNC(=O)[C@]34CC[C@@H](C(C)C)[C@@H]3[C@H]3CC[C@@H]5[C@@]6(C)CCC(=O)C(C)(C)[C@@H]6CC[C@@]5(C)[C@]3(C)CC4)cc2)cc1)C(=O)O` [1b] it is 100 ± 5 µM.
